# Like-named read-outs stand apart in the source and are kept apart here.
# How the values were obtained:
# RS4; 11 = test: Cell viability assay (MTS) in RS4; 11 cells; assay type: cell-based; settings: Homo sapiens, RS4-11
# Experimental: (§1) Acute lymphoblastic leukemia cells (MOLT-4 and RS4; 11) were incubated with increasing concentrations of Bcl-xL degraders for 48 h. Cell viability was measured by tetrazolium-based MTS assay.
# MOLT-4 = test: Cell viability assay (MTS) in MOLT-4 cells; assay type: cell-based; settings: Homo sapiens, MOLT-4
# Experimental: as §1
# [1] = Table 2, 48 hr, MTS, read-out: Anti-Cancer Activity IC50 (48 hr) RS4, 11
# [2] = Table 2, 48 hr, MTS, read-out: Anti-Cancer Activity IC50 (48 hr) MOLT-4
Compound,IC50 (RS4; 11; [1]),IC50 (MOLT-4; [2]),"IC50 (RS4; 11; Table 5, 48 h, read-out: RS4 48 h IC50)","IC50 (MOLT-4; Table 5, 48 h, read-out: MOLT-4 48 h IC50)"
"Cc1ncsc1-c1ccc([C@H](C)NC(=O)[C@@H]2C[C@@H](O)CN2C(=O)[C@@H](NC(=O)CCCCCCC(=O)N2CCN(C[C@]3(C)CCC(c4ccc(Cl)cc4)=C(CN4CCN(c5ccc(C(=O)NS(=O)(=O)c6ccc(N[C@H](CCN(C)CCO)CSc7ccccc7)c([N+](=O)[O-])c6)cc5)CC4)C3)CC2)C(C)(C)C)cc1 [Compound 42, (2S,4R)-1-((S)-2-(8-(4-(((R)-4′-chloro-6-((4-(4-(((4-(((R)-4-((2-hydroxyethyl)(methyl)amino)-1-(phenylthio)butan-2-yl)amino)-3-nitrophenyl)sulfonyl)carbamoyl)phenyl)piperazin-1-yl)methyl)-4-methyl-2,3,4,5-tetrahydro-[1,1′-biphenyl]-4-yl)methyl)piperazin-1-yl)-8-oxooctanamido)-3,3-dimethylbutanoyl)-4-hydroxy-N—((S)-1-(4-(4-methylthiazol-5-yl)phenyl)ethyl)pyrrolidine-2-carboxamide]",< 0.02 µM,0.02 to 0.1 µM,,
Cc1ncsc1-c1ccc([C@H](C)NC(=O)[C@@H]2C[C@@H](O)CN2C(=O)[C@@H](NC(=O)CCCCCCC(=O)N2CCC(C3CCN(CC4(C)CCC(c5ccc(Cl)cc5)=C(CN5CCN(c6ccc(C(=O)NS(=O)(=O)c7ccc(N[C@H](CCN8C[C@H]9C[C@@H]8CO9)CSc8ccccc8)c(S(=O)(=O)C(F)(F)F)c7)cc6)CC5)C4)CC3)CC2)C(C)(C)C)cc1 (stereo partly drawn) [Compound 70],< 0.02 µM,< 0.02 µM,,
"CC(=O)N1CCN(CC[C@H](CSc2ccccc2)Nc2ccc(S(=O)(=O)NC(=O)c3ccc(N4CCN(CC5=C(c6ccc(Cl)cc6)CCC(C)(CN6CCN(C(=O)CCCCCCC(=O)N[C@H](C(=O)N7C[C@H](O)C[C@H]7C(=O)N[C@@H](C)c7ccc(-c8scnc8C)cc7)C(C)(C)C)CC6)C5)CC4)cc3)cc2[N+](=O)[O-])CC1 (stereo partly drawn) [Compound 48, (2S,4R)-1-((2S)-2-(8-(4-((6-((4-(4-(((4-(((R)-4-(4-acetylpiperazin-1-yl)-1-(phenylthio)butan-2-yl)amino)-3-nitrophenyl)sulfonyl)carbamoyl)phenyl)piperazin-1-yl)methyl)-4′-chloro-4-methyl-2,3,4,5-tetrahydro-[1,1′-biphenyl]-4-yl)methyl)piperazin-1-yl)-8-oxooctanamido)-3,3-dimethylbutanoyl)-4-hydroxy-N—((S)-1-(4-(4-methylthiazol-5-yl)phenyl)ethyl)pyrrolidine-2-carboxamide]",< 0.02 µM,0.02 to 0.1 µM,,
Cc1ncsc1-c1ccc([C@H](C)NC(=O)[C@@H]2C[C@@H](O)CN2C(=O)[C@@H](NC(=O)CC(=O)N2CCC(S(=O)(=O)N3CCN(C[C@]4(C)CCC(c5ccc(Cl)cc5)=C(CN5CCN(c6ccc(C(=O)NS(=O)(=O)c7ccc(N[C@H](CCN8CCCOCC8)CSc8ccccc8)c(S(=O)(=O)C(F)(F)F)c7)cc6)CC5)C4)CC3)CC2)C(C)(C)C)cc1 [Compound 100],0.02 to 0.1 µM,0.1 to 0.5 µM,,
"Cc1ncsc1-c1ccc([C@H](C)NC(=O)[C@@H]2C[C@@H](O)CN2C(=O)[C@@H](NC(=O)CCCCCCC(=O)N2CCN(CC3(C)CCC(c4ccc(Cl)cc4)=C(CN4CCN(c5ccc(C(=O)NS(=O)(=O)c6ccc(N[C@H](CCN7CCOCC7)CSc7ccccc7)c([N+](=O)[O-])c6)cc5)CC4)C3)CC2)C(C)(C)C)cc1 (stereo partly drawn) [Compound 33, (2S,4R)-1-((2S)-2-(8-(4-((4′-chloro-4-methyl-6-((4-(4-(((4-(((R)-4-morpholino-1-(phenylthio)butan-2-yl)amino)-3-nitrophenyl)sulfonyl)carbamoyl)phenyl)piperazin-1-yl)methyl)-2,3,4,5-tetrahydro-[1,1′-biphenyl]-4-yl)methyl)piperazin-1-yl)-8-oxooctanamido)-3,3-dimethylbutanoyl)-4-hydroxy-N—((S)-1-(4-(4-methylthiazol-5-yl)phenyl)ethyl)pyrrolidine-2-carboxamide]",< 0.02 µM,0.02 to 0.1 µM,,
Cc1ncsc1-c1ccc([C@H](C)NC(=O)[C@@H]2C[C@@H](O)CN2C(=O)[C@@H](NC(=O)CN2CCC(CC(=O)N3CCN(C[C@]4(C)CCC(c5ccc(Cl)cc5)=C(CN5CCN(c6ccc(C(=O)NS(=O)(=O)c7ccc(N[C@H](CCN8CCCOCC8)CSc8ccccc8)c(S(=O)(=O)C(F)(F)F)c7)cc6)CC5)C4)CC3)CC2)C(C)(C)C)cc1 [Compound 76],< 0.02 µM,< 0.02 µM,,

# Results, then the molecule that gave them:
IC50 (RS4; 11; [1]),IC50 (MOLT-4; [2]),"IC50 (RS4; 11; Table 5, 48 h, read-out: RS4 48 h IC50)","IC50 (MOLT-4; Table 5, 48 h, read-out: MOLT-4 48 h IC50)",Compound
< 0.02 µM,< 0.02 µM,,,"Cc1ncsc1-c1ccc([C@H](C)NC(=O)[C@@H]2C[C@@H](O)CN2C(=O)[C@@H](NC(=O)CCCCCCC(=O)N2CCN(C[C@]3(C)CCC(c4ccc(Cl)cc4)=C(CN4CCN(c5ccc(C(=O)NS(=O)(=O)c6ccc(N[C@H](CCN7CCOC(C)C7)CSc7ccccc7)c(S(=O)(=O)C(F)(F)F)c6)cc5)CC4)C3)CC2)C(C)(C)C)cc1 (stereo partly drawn) [Compound 91, (2S,4R)-1-((2S)-2-(8-(4-(((4R)-4′-chloro-4-methyl-6-((4-(4-(((4-(((2R)-4-(2-methylmorpholino)-1-(phenylthio)butan-2-yl)amino)-3-((trifluoromethyl)sulfonyl)phenyl)sulfonyl)carbamoyl)phenyl)piperazin-1-yl)methyl)-2,3,4,5-tetrahydro-[1,1′-biphenyl]-4-yl)methyl)piperazin-1-yl)-8-oxooctanamido)-3,3-dimethylbutanoyl)-4-hydroxy-N—((S)-1-(4-(4-methylthiazol-5-yl)phenyl)ethyl)pyrrolidine-2-carboxamide]"
< 0.02 µM,< 0.02 µM,,,Cc1ncsc1-c1ccc([C@H](C)NC(=O)[C@@H]2C[C@@H](O)CN2C(=O)[C@@H](NC(=O)CCCCCCC(=O)N2CCN(CC3(C)CCC(c4ccc(Cl)cc4)=C(CN4CCN(c5ccc(C(=O)NS(=O)(=O)c6ccc(N[C@H](CCN(C)C)CSc7ccccc7)c(S(=O)(=O)C(F)(F)F)c6)cc5)CC4)C3)CC2)C(C)(C)C)cc1 (stereo partly drawn) [Compound 61]
< 0.02 µM,0.02 to 0.1 µM,0.0156 µM,0.0881 µM,"Cc1ncsc1-c1ccc([C@H](C)NC(=O)[C@@H]2C[C@@H](O)CN2C(=O)[C@@H](NC(=O)CCCCCOCc2cn(CC3(C)CCC(c4ccc(Cl)cc4)=C(CN4CCN(c5ccc(C(=O)NS(=O)(=O)c6ccc(N[C@H](CCN7CCOCC7)CSc7ccccc7)c(S(=O)(=O)C(F)(F)F)c6)cc5)CC4)C3)nn2)C(C)(C)C)cc1 (stereo partly drawn) [Compound 20, (2S,4R)-1-((2S)-2-(6-((1-((4′-chloro-4-methyl-6-((4-(4-(((4-(((R)-4-morpholino-1-(phenylthio)butan-2-yl)amino)-3-((trifluoromethyl)sulfonyl)phenyl)sulfonyl)carbamoyl)phenyl)piperazin-1-yl)methyl)-2,3,4,5-tetrahydro-[1,1′-biphenyl]-4-yl)methyl)-1H-1,2,3-triazol-4-yl)methoxy)hexanamido)-3,3-dimethylbutanoyl)-4-hydroxy-N—((S)-1-(4-(4-methylthiazol-5-yl)phenyl)ethyl)pyrrolidine-2-carboxamide]"
0.5 to 10 µM,0.5 to 10 µM,,,Cc1ncsc1-c1ccc([C@H](C)NC(=O)[C@@H]2C[C@@H](O)CN2C(=O)[C@@H](NC(=O)COCCOCc2cn(CCCC(=O)NCC3(C)CCC(c4ccc(Cl)cc4)=C(CN4CCN(c5ccc(C(=O)NS(=O)(=O)c6ccc(N[C@H](CCN7CCOCC7)CSc7ccccc7)c(S(=O)(=O)C(F)(F)F)c6)cc5)CC4)C3)nn2)C(C)(C)C)cc1 (stereo partly drawn) [Compound 23]
< 0.02 µM,0.02 to 0.1 µM,,,"CCN(CCO)CC[C@H](CSc1ccccc1)Nc1ccc(S(=O)(=O)NC(=O)c2ccc(N3CCN(CC4=C(c5ccc(Cl)cc5)CCC(C)(CN5CCN(C(=O)CCCCCCC(=O)N[C@H](C(=O)N6C[C@H](O)C[C@H]6C(=O)N[C@@H](C)c6ccc(-c7scnc7C)cc6)C(C)(C)C)CC5)C4)CC3)cc2)cc1S(=O)(=O)C(F)(F)F (stereo partly drawn) [Compound 63, (2S,4R)-1-((2S)-2-(8-(4-((4′-chloro-6-((4-(4-(((4-(((R)-4-(ethyl(2-hydroxyethyl)amino)-1-(phenylthio)butan-2-yl)amino)-3-((trifluoromethyl)sulfonyl)phenyl)sulfonyl)carbamoyl)phenyl)piperazin-1-yl)methyl)-4-methyl-2,3,4,5-tetrahydro-[1,1′-biphenyl]-4-yl)methyl)piperazin-1-yl)-8-oxooctanamido)-3,3-dimethylbutanoyl)-4-hydroxy-N—((S)-1-(4-(4-methylthiazol-5-yl)phenyl)ethyl)pyrrolidine-2-carboxamide]"
0.1 to 0.5 µM,0.1 to 0.5 µM,,,Cc1ncsc1-c1ccc([C@H](C)NC(=O)[C@@H]2C[C@@H](O)CN2C(=O)[C@@H](NC(=O)CNC(=O)c2ccc(N3CCN(CCN(C)CC4(C)CCC(c5ccc(Cl)cc5)=C(CN5CCN(c6ccc(C(=O)NS(=O)(=O)c7ccc(N[C@H](CCN8CCOCC8)CSc8ccccc8)c(S(=O)(=O)C(F)(F)F)c7)cc6)CC5)C4)CC3)cc2)C(C)(C)C)cc1 (stereo partly drawn) [Compound 13]
0.02 to 0.1 µM,0.02 to 0.1 µM,,,Cc1ncsc1-c1ccc([C@H](C)NC(=O)[C@@H]2C[C@@H](O)CN2C(=O)[C@@H](NC(=O)CCCCCNC(=O)c2ccc(N3CCN(CCN(C)CC4(C)CCC(c5ccc(Cl)cc5)=C(CN5CCN(c6ccc(C(=O)NS(=O)(=O)c7ccc(N[C@H](CCN8CCOCC8)CSc8ccccc8)c(S(=O)(=O)C(F)(F)F)c7)cc6)CC5)C4)CC3)nc2)C(C)(C)C)cc1 (stereo partly drawn) [Compound 9]
< 0.02 µM,< 0.02 µM,,,Cc1ncsc1-c1ccc([C@H](C)NC(=O)[C@@H]2C[C@@H](O)CN2C(=O)[C@@H](NC(=O)CCCCCCC(=O)N2CCN(C[C@]3(C)CCC(c4ccc(Cl)cc4)=C(CN4CCN(c5ccc(C(=O)NS(=O)(=O)c6ccc(N[C@H](CCN7C[C@H]8COC[C@H]8C7)CSc7ccccc7)c(S(=O)(=O)C(F)(F)F)c6)cc5)CC4)C3)CC2)C(C)(C)C)cc1 [Compound 95]
